In assay [1] the test system is CIA mouse model (DBA/1J mice). The assay is described as follows: Collagen-induced arthritis (CIA) mouse model, macroscopic scoring of paws. Format: in vivo. The settings on record: for CIA index (arthritic score of test group / vehicle group x 100): 30 mg/kg/day oral gavage once daily, DBA/1J mice; for Inhibition in arthritis phenotype indicated by CIA compared with R788 (in words): mouse, in vivo.
Method: CIA mouse model was induced in DBA/1J mice (Japan Charles River Breeding Laboratories, Kanagawa, Japan) with 5 to 6 weeks of age. Animals were maintained at a temperature of 20±5° C. and a relative humidity of 40˜60%.
Bovine type II collagen (CII, 2 mg/ml dissolved in 0.05 M acetic acid, Chondrex, Redmond, Wash.) was emulsified in equal volumes of Freund's complete adjuvant (4 mg/ml of Mycobacterium tuberculosis strain H37Ra; Chondrex, Redmond, Wash.). On day 0, mice were immunized intradermally at the base of the tail with 100 μg bovine type II collagen emulsified in Freund's complete adjuvant. On day 21, all mice were boosted with an intraperitoneal injection of 100 μg type II collagen.
All the test substances were administered once daily at 30 mg/kg/day by oral gavage for 3 weeks.
The gradual onset of arthritis usually starts approximately 3 weeks after initial immunization. The progression of CIA was evaluated by the macroscopic scoring of paws at intervals of 3 days. The edema and swelling of each paw was scored visually as was described previously, using a scale of 0-4, where 0=no visible abnormalities, 1=mild redness or swelling of the wrist or up to three inflamed digits, 2=more than three inflamed digits or moderate redness and swelling of the ankle or wrist, 3=severe ankle and wrist inflammation, 4=extensive ankle and wrist inflammation including all digits.
Arthritis was considered to be present if the score was >2. The blind scoring was performed by four independent observers. In this study, data was calculated by following equation.

For assay [2], the target named is full-length human SYK (Homo sapiens (Human), UniProt P43405). The assay is described as follows: Inhibition of enzymatic SYK kinase activity (LANCE Ulight-TK peptide, Eu-antibody, 665 nm emission). The format is biochemical. The settings on record: ATP at Km (15 uM).
For assay [3], the system named is THP-1 cells. In words: SYK-independent TNF-α release assay (lipopolysaccharide stimulation), ELISA. The format is cell-based, human. The settings on record: SYK-independent pathway; for IC50: LPS, 18 hours, read-out: TNF-α release inhibition, LPS stimulation (IC50 nM). In general terms: An ELISA detects its analyte on a solid surface through an enzyme-linked reagent.
Method: For SYK-independent TNF-α release assay, THP-1 cells were seeded at 1×10^5 cells/100 μL/well into 96 well culture plate, and serially diluted compound solution was added following lipopolysaccharide stimulation. After an 18-hour incubation period at 37° C., supernatants were collected for the determination of the TNF-α level by enzyme-linked immunosorbent assay (ELISA), and the remaining cells were subjected to an MTT (yellow tetrazolium salt) assay to determine the cytotoxic effects of compound. The IC50 value of test compound was calculated at Gradpad Prism 5 unless otherwise specified.

For assay [4], the system named is THP-1 cells. The assay is described as follows: SYK-dependent TNF-α release assay (IgG stimulation), ELISA. The format is cell-based, human. The settings on record: for IC50: human IgG-coated plate, 18 hours, SYK-dependent pathway, read-out: TNF-α release inhibition, IgG stimulation (IC50 nM).
Method: For SYK-dependent TNF-α release assay (i.e., via IgG stimulation), THP-1 cells derived from human monocytic cells were obtained from the American Type Culture Collection (ATCC, Manassas, Va.). This cell line was maintained with a Roswell Park Memorial Institute (RPMI) medium (GIBCO) containing 10% fetal bovine serum (FBS; GIBCO) and 0.05 mM solution of 2-mercaptoethanol. The THP-1 cells were seeded at 1×10^5 cells/100 μL/well into human IgG (10 ng/well, INVITROGEN)-coated 96 well culture plate, and serially diluted compound was then added. After an 18 hours of incubation period at 37° C., supernatants were collected for the determination of the TNF-α level by enzyme-linked immunosorbent assay (ELISA), and the remaining cells were subjected to an MTT (yellow tetrazolium salt) assay to determine the cytotoxic effects of the compound. The IC50 value of the test compound was calculated at Gradpad Prism 5 unless otherwise specified.
For assay [5], the target named is full-length human KDR (VEGFR2) (Homo sapiens (Human), UniProt P35968). The assay is described as follows: Inhibition of enzymatic KDR kinase activity (LANCE Ulight-JAK1 peptide, Eu-antibody, 665 nm emission). The format is biochemical. The settings on record: ATP at Km (15 uM).
Chain of full-length human KDR (VEGFR2) (P35968 20-1356): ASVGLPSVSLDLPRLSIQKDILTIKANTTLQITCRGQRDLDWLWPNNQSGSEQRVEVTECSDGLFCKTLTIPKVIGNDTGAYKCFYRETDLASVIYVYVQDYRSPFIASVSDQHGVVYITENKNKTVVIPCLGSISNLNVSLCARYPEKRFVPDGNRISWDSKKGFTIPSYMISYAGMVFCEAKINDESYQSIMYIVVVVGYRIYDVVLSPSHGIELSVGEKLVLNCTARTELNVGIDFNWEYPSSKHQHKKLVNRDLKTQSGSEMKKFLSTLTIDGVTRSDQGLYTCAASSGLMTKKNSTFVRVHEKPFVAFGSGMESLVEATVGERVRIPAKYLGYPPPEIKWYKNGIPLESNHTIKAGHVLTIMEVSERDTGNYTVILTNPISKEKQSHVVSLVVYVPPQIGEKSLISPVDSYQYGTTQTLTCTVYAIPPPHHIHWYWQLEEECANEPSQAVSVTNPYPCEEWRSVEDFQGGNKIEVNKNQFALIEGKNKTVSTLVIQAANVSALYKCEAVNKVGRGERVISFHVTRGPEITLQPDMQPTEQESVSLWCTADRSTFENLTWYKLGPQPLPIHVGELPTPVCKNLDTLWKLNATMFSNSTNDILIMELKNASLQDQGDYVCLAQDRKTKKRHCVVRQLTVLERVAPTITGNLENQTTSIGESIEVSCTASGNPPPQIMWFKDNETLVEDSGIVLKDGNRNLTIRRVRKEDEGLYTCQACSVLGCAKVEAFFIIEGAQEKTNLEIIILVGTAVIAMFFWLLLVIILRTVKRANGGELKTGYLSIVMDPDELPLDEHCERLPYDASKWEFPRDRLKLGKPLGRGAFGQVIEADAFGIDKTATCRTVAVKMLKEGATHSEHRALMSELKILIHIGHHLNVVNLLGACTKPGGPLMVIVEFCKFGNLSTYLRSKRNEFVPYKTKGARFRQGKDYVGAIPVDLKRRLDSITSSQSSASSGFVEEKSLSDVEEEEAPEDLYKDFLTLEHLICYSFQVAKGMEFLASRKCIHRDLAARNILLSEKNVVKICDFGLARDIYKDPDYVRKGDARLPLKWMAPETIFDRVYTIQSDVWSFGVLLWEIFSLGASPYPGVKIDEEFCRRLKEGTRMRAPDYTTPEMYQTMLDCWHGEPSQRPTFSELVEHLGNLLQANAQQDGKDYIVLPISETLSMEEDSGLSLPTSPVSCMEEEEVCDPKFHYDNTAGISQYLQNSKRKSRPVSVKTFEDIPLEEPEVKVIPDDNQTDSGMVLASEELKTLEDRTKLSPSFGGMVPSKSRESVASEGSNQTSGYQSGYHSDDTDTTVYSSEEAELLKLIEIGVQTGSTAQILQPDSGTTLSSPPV

Experimental findings from patent US8871778B2, “Substituted pyrimidine compounds and their use as SYK inhibitors” (Genosco, priority 2012, dated 2014) are described below.

For the molecule `COc1cc(Nc2ncc(F)c(Nc3ccc4c(n3)N(COP(=O)(O)O)C(=O)C(C)(C)O4)n2)cc(OC)c1OC` [Compound R788], the “CIA index (arthritic score of test group / vehicle group x 100)” value in assay [1] (day 6) worked out at 41.9 ± 7.5%; in assay [1] (day 9), 49.6 ± 9.4%; in assay [1] (day 12) it was 68.3 ± 8.6%; in assay [1] (day 15) it was 74.1 ± 7.1%; in assay [1] (day 18), 79.4 ± 10.7%; in assay [1] (day 21), 80.1 ± 6.7%.
`Cc1cn(-c2ccnc(Nc3ccc4c(ccn4C)c3)n2)cc1CN1CC(O)C1` [Compound 52, 1-((4-methyl-1-(2-(1-methyl-1H-indol-5-ylamino)pyrimidin-4-yl)-1H-pyrrol-3-yl)methyl)azetidin-3-ol]: in assay [2], the IC50 – broadly, the midpoint of a concentration-inhibition curve – is 190 nM.
`Cc1nn(-c2ccnc(Nc3ccc4c(c3)c(C(=O)C(F)(F)F)cn4C)n2)cc1CN1CC(O)C1` [Compound 151, 2,2,2-Trifluoro-1-(5-(4-(4-((3-hydroxyazetidin-1-yl)methyl)-3-methyl-1H-pyrazol-1-yl)pyrimidin-2-ylamino)-1-methyl-1H-indol-3-yl)ethanone]: the IC50 in assay [3] (Homo sapiens) was above 1000 nM; in assay [4] it was 20 nM.
The corresponding values for `Cc1nn(-c2ccnc(Nc3ccc4c(c3)c(Cl)c(C)n4C)n2)cc1CN1CC[C@@H](O)C1` [Compound 189, (R)-1-((1-(2-(3-Chloro-1,2-dimethyl-1H-indol-5-ylamino)pyrimidin-4-yl)-3-methyl-1H-pyrazol-4-yl)methyl)pyrrolidin-3-ol] are 2800 nM and 42 nM.
Consider `Cc1nn(-c2ccnc(Nc3ccc4c(cnn4C)c3)n2)cc1CN1CC(O)C1` [Compound 160, 1-((3-Methyl-1-(2-(1-methyl-1H-indazol-5-ylamino)pyrimidin-4-yl)-1H-pyrazol-4-yl)methyl)azetidin-3-ol], for which the IC50 in assay [3] (Homo sapiens) is 934 nM; in assay [4], 91 nM.
Consider `C[C@@H]1C[C@H]2[C@@H]3CCC4=CC(=O)C=C[C@]4(C)[C@@]3(F)[C@@H](O)C[C@]2(C)[C@@]1(O)C(=O)CO` [Dexamethasone], for which the IC50 in assay [3] is 431 nM.
Turning to `Cc1nn(-c2ccnc(Nc3ccc4c(c3)c(Cl)c(C)n4C)n2)cc1CN1CC(O)C1` [Compound 141, 1-((1-(2-(3-chloro-1,2-dimethyl-1H-indol-5-ylamino)pyrimidin-4-yl)-3-methyl-1H-pyrazol-4-yl)methyl)azetidin-3-ol], the IC50 in assay [5] came out at 192 nM. In addition, in assay [1], the “Inhibition in arthritis phenotype indicated by CIA compared with R788 (in words)” value is “stronger inhibition”.
For `Cc1nn(-c2ccnc(Nc3ccc4c(c3)c(Cl)cn4C)n2)cc1CN1CC(O)C1` [Compound 144, 1-((1-(2-(3-Chloro-1-methyl-1H-indol-5-ylamino)pyrimidin-4-yl)-3-methyl-1H-pyrazol-4-yl)methyl)azetidin-3-ol], the IC50 in assay [3] (Homo sapiens) worked out at 1140 nM; in assay [4] it was 13 nM. Also, the “Inhibition in LPS stimulated TNF-α production (in words)” value in assay [3] is “no inhibition”. For the same molecule, in assay [4] (IgG stimulated release), the “Inhibition in SYK dependent TNF-α release assay compared with R406 (in words)” value was “stronger inhibition than R406”. Besides, in assay [1], the “Inhibition in arthritis phenotype indicated by CIA compared with R788 (in words)” value is given as “stronger inhibition”.
For `COc1cc(Nc2ncc(F)c(Nc3ccc4c(n3)NC(=O)C(C)(C)O4)n2)cc(OC)c1OC` [Compound R406, reference compound], the IC50 in assay [4] is 171 nM.
